Read-outs that look alike come from different tables or passages of the source. Positions of bridges follow the written chain, without caps; N, C: chain ends. Non-standard residues stand in square brackets, D forms with d. Residues, ends and D or L forms follow the SMILES beside them. *: point of attachment. Malonyl(2,2-Me2,histaminyl) = CC(C)(C(=O)NCCc1cnc[nH]1)C(=O)*; Ala(1H-tetrazol-5-yl) = N[C@@H](Cc1nnn[nH]1)C(=O)O; αMeL = CC(C)C[C@](C)(N)C(=O)O; Nle = CCCC[C@H](N)C(=O)O; Aib = CC(C)(N)C(=O)O
Assays:
mouse GLP2 receptor = target: T1, mouse GLP2 receptor (Mus musculus, UniProt Q5IXF8); assay: cAMP accumulation assay, functional agonism of mouse GLP2 receptor; assay type: cell-based
T1 construct: expressed in transfected cells; host or cells: HEK cells, transient transfection with GeneJuice
T1 sequence (Q5IXF8 1-512): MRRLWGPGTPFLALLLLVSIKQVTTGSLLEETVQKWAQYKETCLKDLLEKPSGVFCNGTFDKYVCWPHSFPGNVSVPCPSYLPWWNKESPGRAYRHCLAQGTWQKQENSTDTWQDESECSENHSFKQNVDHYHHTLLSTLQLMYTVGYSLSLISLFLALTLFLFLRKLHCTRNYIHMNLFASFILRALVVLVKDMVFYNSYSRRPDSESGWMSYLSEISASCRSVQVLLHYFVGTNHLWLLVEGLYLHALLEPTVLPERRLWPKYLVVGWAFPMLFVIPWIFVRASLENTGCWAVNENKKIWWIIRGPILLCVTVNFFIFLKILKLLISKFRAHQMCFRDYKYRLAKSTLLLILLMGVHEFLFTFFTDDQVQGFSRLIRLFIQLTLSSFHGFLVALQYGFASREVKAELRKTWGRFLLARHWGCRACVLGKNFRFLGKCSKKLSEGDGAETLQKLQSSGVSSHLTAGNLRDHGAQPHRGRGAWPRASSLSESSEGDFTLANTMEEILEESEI
Outline: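 Transiently transfected HEK cells (24 h, frozen, 8000/well) in HBSS with 0.5 mM IBMX exposed to compound concentration series for 45 min at 37 °C. cAMP measured by HTRF after lysis and 1 h at RT; pEC50 from four-parameter concentration-response fit.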

human GLP1 receptor = target: T2, human GLP1 receptor (Homo sapiens, UniProt P43220); assay: cAMP accumulation assay, functional agonism of human GLP1 receptor; assay type: cell-based; details: HEK cells infected with human GLP1 receptor BacMam virus, HTRF cAMP; for Emax: HEK293, read-out: Human GLP-1R agonist cAMP Emax; for EC50: read-out: Human GLP-1R agonist cAMP pEC50 (converted)
T2 construct: expressed in transfected cells; host or cells: HEK cells, BacMam virus transduction
Outline: (§1)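 HEK cells transduced 24 h with human GLP1 or GLP2 receptor BacMam virus, then frozen until use. Agonist stimulation for 45 min at 37 °C in HBSS with 0.5 mM IBMX; cAMP measured by HTRF after lysis.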

human GLP2 receptor = target: T3, human GLP2 receptor (Homo sapiens, UniProt O95838); assay: cAMP accumulation assay, functional agonism of human GLP2 receptor; assay type: cell-based; details: HEK cells infected with human GLP2 receptor BacMam virus, HTRF cAMP; for Emax: HEK293, read-out: Human GLP-2R agonist cAMP Emax; for EC50: read-out: Human GLP-2R agonist cAMP pEC50 (converted)
T3 construct: expressed in transfected cells; host or cells: HEK cells, BacMam virus transduction
T3 sequence (O95838 1-553): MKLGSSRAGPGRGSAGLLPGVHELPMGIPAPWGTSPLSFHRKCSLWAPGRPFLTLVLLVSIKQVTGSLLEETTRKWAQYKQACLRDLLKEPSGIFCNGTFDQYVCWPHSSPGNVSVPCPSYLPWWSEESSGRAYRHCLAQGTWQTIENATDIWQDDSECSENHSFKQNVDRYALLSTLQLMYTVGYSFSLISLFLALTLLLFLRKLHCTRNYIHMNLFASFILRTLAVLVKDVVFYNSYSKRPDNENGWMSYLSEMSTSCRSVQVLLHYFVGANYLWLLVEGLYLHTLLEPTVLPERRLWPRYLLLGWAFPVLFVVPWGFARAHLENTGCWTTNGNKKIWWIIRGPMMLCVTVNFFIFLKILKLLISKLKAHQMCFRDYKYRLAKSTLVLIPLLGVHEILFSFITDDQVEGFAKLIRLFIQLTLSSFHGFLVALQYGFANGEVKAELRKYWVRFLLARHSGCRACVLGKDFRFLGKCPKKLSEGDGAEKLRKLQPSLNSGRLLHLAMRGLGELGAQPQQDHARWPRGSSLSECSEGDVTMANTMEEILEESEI
Outline: as §1

mouse GLP1 receptor = target: T4, mouse GLP1 receptor (Mus musculus, UniProt O35659); assay: cAMP accumulation assay, functional agonism of mouse GLP1 receptor; assay type: cell-based
T4 construct: expressed in transfected cells; host or cells: HEK cells, transient transfection with GeneJuice
T4 sequence (O35659 22-463): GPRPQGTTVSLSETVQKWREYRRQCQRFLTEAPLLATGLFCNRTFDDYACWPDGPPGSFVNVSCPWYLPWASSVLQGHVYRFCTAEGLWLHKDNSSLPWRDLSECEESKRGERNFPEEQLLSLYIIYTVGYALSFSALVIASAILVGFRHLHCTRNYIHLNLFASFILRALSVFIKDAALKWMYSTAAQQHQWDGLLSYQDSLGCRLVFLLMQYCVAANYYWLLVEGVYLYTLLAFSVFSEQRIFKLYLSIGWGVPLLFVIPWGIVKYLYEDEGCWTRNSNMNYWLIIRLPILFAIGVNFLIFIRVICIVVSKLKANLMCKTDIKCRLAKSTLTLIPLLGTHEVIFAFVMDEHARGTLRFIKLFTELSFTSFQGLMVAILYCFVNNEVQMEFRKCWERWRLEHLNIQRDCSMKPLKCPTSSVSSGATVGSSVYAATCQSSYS

[1] = Stability of peptides in Fasted-State Simulated Intestinal Fluid (FaSSIF); assay type: in vitro ADME; details: FaSSIF with 10 mg/ml pancreatin; FaSSIF pH 6.5 with 10 mg/ml pancreatin, 37° C., t = 15 mins
[2] = HEK293, HEK cells transiently transfected with mouse GLP2 receptor, HTRF cAMP, read-out: Mouse GLP-2R agonist cAMP Emax
[3] = HEK cells transiently transfected with mouse GLP2 receptor, HTRF cAMP, read-out: Mouse GLP-2R agonist cAMP pEC50 (converted)
[4] = HEK293, HEK cells transiently transfected with mouse GLP1 receptor, HTRF cAMP, read-out: Mouse GLP-1R agonist cAMP Emax
[5] = HEK cells transiently transfected with mouse GLP1 receptor, HTRF cAMP, read-out: Mouse GLP-1R agonist cAMP pEC50 (converted)

T2 sequence (P43220 24-463): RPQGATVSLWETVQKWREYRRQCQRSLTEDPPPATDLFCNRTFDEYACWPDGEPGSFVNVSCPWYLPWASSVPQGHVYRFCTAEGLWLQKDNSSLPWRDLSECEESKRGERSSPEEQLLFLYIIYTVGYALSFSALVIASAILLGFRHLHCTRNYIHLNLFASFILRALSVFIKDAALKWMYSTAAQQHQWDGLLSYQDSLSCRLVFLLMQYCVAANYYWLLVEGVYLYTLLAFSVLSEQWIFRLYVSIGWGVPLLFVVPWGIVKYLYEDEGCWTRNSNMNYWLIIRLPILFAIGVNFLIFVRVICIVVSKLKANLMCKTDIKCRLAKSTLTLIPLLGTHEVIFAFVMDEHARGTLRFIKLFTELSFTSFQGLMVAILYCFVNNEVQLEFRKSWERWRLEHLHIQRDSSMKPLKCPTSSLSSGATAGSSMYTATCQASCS

| Compound | Emax (mouse GLP2 receptor; [2]) | EC50 (mouse GLP2 receptor; [3]) | Emax (human GLP1 receptor) | EC50 (human GLP1 receptor) | Emax (human GLP2 receptor) | EC50 (human GLP2 receptor) | Emax (mouse GLP1 receptor; [4]) | EC50 (mouse GLP1 receptor; [5]) | remaining at 0.25 h [1] | EC50 (mouse GLP2 receptor) | Emax (mouse GLP2 receptor; HEK293, read-out: Mouse GLP-2R agonist cAMP Emax) | EC50 (mouse GLP1 receptor) | Emax (mouse GLP1 receptor; HEK293, read-out: Mouse GLP-1R agonist cAMP Emax) |
| --- | --- | --- | --- | --- | --- | --- | --- | --- | --- | --- | --- | --- | --- |
| CCCC[C@H](NC(=O)[C@H](CCC(=O)O)NC(=O)[C@H](CC(=O)O)NC(=O)[C@H](CO)NC(=O)[C@H](Cc1ccccc1)NC(=O)[C@H](CO)NC(=O)CNC(=O)[C@H](CC(=O)O)NC(=O)C(C)(C)NC(=O)[C@@H](N)Cc1c[nH]cn1)C(=O)N[C@H](Cc1ccccc1)C(=O)N[C@H](C(=O)N[C@H](C(=O)N[C@@H](CC(C)C)C(=O)N[C@@H](CC(=O)O)C(=O)N[C@H]1CCC(=O)NCCCC[C@@H](C(=O)N[C@@H](CC(=O)O)C(=O)N[C@@H](Cc2ccccc2)C(=O)N[C@H](C(=O)N[C@@H](CC(N)=O)C(=O)N[C@@H](Cc2c[nH]c3ccccc23)C(=O)N[C@@H](CC(C)C)C(=O)N[C@H](C(=O)N[C@@H](CCC(N)=O)C(=O)N[C@H](C(=O)N[C@@H](CCCCN)C(=O)N[C@H](C(=O)N[C@H](C(=O)N[C@@H](CC(=O)O)C(N)=O)[C@@H](C)O)[C@@H](C)CC)[C@@H](C)O)[C@@H](C)CC)[C@@H](C)CC)NC(=O)[C@H](C)NC(=O)[C@H](C)NC(=O)[C@H](CCCCN)NC1=O)[C@@H](C)CC)[C@@H](C)O [Example 89] (H-H[Aib]DGSFSDE[Nle][dF]TILDEKAAKDFINWLIQTKITD-NH2; lactam 16-20 (inferred); C-terminus assumed) | 98.4% | 0.00631 nM | 99.6% | 3.16 nM | 102% | 0.00251 nM | 94.5% | 0.794 nM | 10.5% | – | – | – | – |
| CCCC[C@H](NC(=O)[C@H](CCC(=O)O)NC(=O)[C@H](CC(=O)O)NC(=O)[C@H](CO)NC(=O)[C@H](Cc1ccccc1)NC(=O)[C@H](CO)NC(=O)CNC(=O)[C@H](CC(=O)O)NC(=O)C(C)(C)NC(=O)[C@@H](N)Cc1c[nH]cn1)C(=O)N[C@H](Cc1ccccc1)C(=O)N[C@H](C(=O)N[C@H](C(=O)N[C@@H](CC(C)C)C(=O)N[C@@H](CC(=O)O)C(=O)N[C@@H](CC(C)C)C(=O)N[C@@H](CCCCN)C(=O)N[C@@H](C)C(=O)N[C@@H](C)C(=O)N[C@@H](CCCCN)C(=O)N[C@@H](CC(=O)O)C(=O)N[C@@H](Cc1ccccc1)C(=O)N[C@H](C(=O)N[C@@H](CC(N)=O)C(=O)N[C@@H](Cc1c[nH]c2ccccc12)C(=O)N[C@@H](CC(C)C)C(=O)N[C@H](C(=O)N[C@@H](CCC(N)=O)C(=O)N[C@H]1CCCCNC(=O)CC[C@@H](C(N)=O)NC(=O)[C@H]([C@@H](C)O)NC(=O)[C@H]([C@@H](C)CC)NC(=O)[C@H](CCCCN)NC1=O)[C@@H](C)CC)[C@@H](C)CC)[C@@H](C)CC)[C@@H](C)O [Example 93] (H-H[Aib]DGSFSDE[Nle][dF]TILDLKAAKDFINWLIQKKITE-NH2; lactam 29-33; N-terminus and C-terminus assumed) | 98.5% | 0.251 nM | 95.3% | 3.98 nM | 98.6% | 0.00501 nM | 95.5% | 2.51 nM | 13.5% | – | – | – | – |
| CCCC[C@H](NC(=O)[C@H](CCC(=O)O)NC(=O)[C@H](CC(=O)O)NC(=O)[C@H](CO)NC(=O)[C@H](Cc1ccccc1)NC(=O)[C@H](CO)NC(=O)[C@@H](C)NC(=O)[C@H](Cc1nn[nH]n1)NC(=O)C(C)(C)C(=O)NCCc1c[nH]cn1)C(=O)N[C@H](Cc1ccccc1)C(=O)N[C@H](C(=O)N[C@@](C)(CC(C)C)C(=O)N[C@@H](CC(C)C)C(=O)N[C@@H](CC(=O)O)C(=O)N[C@H]1CCC(=O)NCCCC[C@@H](C(=O)N[C@@H](CC(=O)O)C(=O)N[C@@H](Cc2ccccc2)C(=O)N[C@H](C(=O)N[C@H]2CCC(=O)NCCCC[C@@H](C(=O)N[C@H](C(=O)N[C@@H](CCCCN)C(N)=O)[C@@H](C)O)NC(=O)[C@H]([C@@H](C)CC)NC(=O)[C@H](CC(C)C)NC(=O)[C@H](Cc3c[nH]c4ccccc34)NC2=O)[C@@H](C)CC)NC(=O)[C@H](C)NC(=O)[C@H](C)NC(=O)[C@H](CCCCN)NC1=O)[C@@H](C)O [Example 117] ({Malonyl(2,2-Me2,histaminyl)}-[Ala(1H-tetrazol-5-yl)][dA]SFSDE[Nle][dF]T[αMeL]LDEKAAKDFIEWLIKTK-NH2; lactam 14-18, 22-26; C-terminus assumed) | – | – | 94.7% | 0.126 nM | 103% | 0.00316 nM | – | – | – | 0.158 nM | 99.3% | 0.0794 nM | 96.9% |
| CCCC[C@H](NC(=O)[C@H](CCC(=O)O)NC(=O)[C@H](CC(=O)O)NC(=O)[C@H](CO)NC(=O)[C@H](Cc1ccccc1)NC(=O)[C@H](CO)NC(=O)CNC(=O)[C@H](Cc1nn[nH]n1)NC(=O)C(C)(C)C(=O)NCCc1c[nH]cn1)C(=O)N[C@H](Cc1ccccc1)C(=O)N[C@H](C(=O)N[C@H](C(=O)N[C@@H](CC(C)C)C(=O)N[C@@H](CC(=O)O)C(=O)N[C@H]1CC(=O)NCCCC[C@@H](C(=O)N[C@@H](CC(=O)O)C(=O)N[C@@H](Cc2ccccc2)C(=O)N[C@H](C(=O)N[C@@H](CC(N)=O)C(=O)N[C@@H](Cc2c[nH]c3ccccc23)C(=O)N[C@@H](CC(C)C)C(=O)N[C@H](C(=O)N[C@@H](CCC(N)=O)C(=O)N[C@H](C(=O)N[C@@H](CCCCN)C(=O)N[C@H](C(=O)N[C@H](C(=O)N[C@@H](Cc2ccccc2)C(N)=O)[C@@H](C)O)[C@@H](C)CC)[C@@H](C)O)[C@@H](C)CC)[C@@H](C)CC)NC(=O)[C@H](C)NC(=O)[C@H](C)NC(=O)[C@H](CCCCN)NC1=O)[C@@H](C)CC)[C@@H](C)O [Example 95] ({Malonyl(2,2-Me2,histaminyl)}-[Ala(1H-tetrazol-5-yl)]GSFSDE[Nle][dF]TILDDKAAKDFINWLIQTKITF-NH2; lactam 14-18; C-terminus assumed) | 102% | 0.00794 nM | 97% | 3.98 nM | 102% | 0.00794 nM | 94.7% | 5.01 nM | – | – | – | – | – |
